Assay results published in patent publication US20110098177A1, “METHODS AND COMPOSITIONS OF PLANT MICRONUTRIENTS” (NOVUS INTERNATIONAL INC., priority 2006, published 2011).
Where two headings read alike, the source gives them in different places. Marks after values point to notes of the source that are not given here.

Key:
Type in all cases: in vivo
[1] = system: Aristotle bell pepper; conditions: 1 week after treatment, scale 0 = no visible injury, 10 = plant death
Outline: (§1)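 Florida-47 tomato and Aristotle bell pepper transplants in 2-gal pots with low-nutrient medium (pH 5.36), drip-irrigated; products at three rates in deionized water plus non-ionic surfactant sprayed on newly matured leaves at 3 and 7 WAT. Toxicity scored at 4 WAT (0=no damage, 10=death); foliar tissue analysed at 6 WAT; marketable fruit harvested 4 times (tomato).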

[2] = system: Florida-47 tomato; conditions: 1 week after treatment, scale 0 = no visible injury, 10 = plant death
Outline: as §1

[3] = system: Florida-47 tomato; test: Marketable yield per plant, greenhouse Fall 2007, tomato
Method: (§2) The following experiments were performed in a green house during the fall of 2007 at GCREC, Balm, University of Florida. Fifteen products, at 3 different application rates were examined. The plot size was 2-gallon pots. Crop set-up, procedures and variables were as follows.
(§3) Transplants of ‘Florida-47’ tomato and ‘Aristotle’ bell pepper plants in the 4-true leaf stage (about 6 inches tall) were planted in 2-gal pots on Aug. 27, 2007. Pots were filled with a commercially available planting medium. This medium was selected based on the mineral composition of the products to be applied without providing significant nutritional inputs to the crops. Irrigation was provided with drip lines delivering between 0.50 and 0.33 gal/day/pot for tomato and bell pepper, respectively, and the crops were irrigated three times per day. No foliar pesticides were necessary.
(§4) There were four control treatments corresponding to each target micronutrient in which non-Fe, non-Mn, non-Zn or non-Cu pots received all other essential nutrients under non-limiting conditions.
(§5) Treatments were applied at three rates (high, medium and low) obtained from the estimated concentration of Zn, Fe, Cu, and Mn foliarly-applied in tomato and bell pepper in field situations (Table 1). Products were weighed and dissolved in 200 ml of deionized water with a non-ionic surfactant and applied to the newly-matured open leaves of each crop at 3 and 7 weeks after transplant (WAT). Treated pots were isolated during application to avoid cross-contamination of other treatments.
(§6) Medium nutrient concentration was determined 1 week before treatment. The mineral composition of the medium was 26.8 ppm NH4—N, 49 ppm NO3—N, 15.8 ppm P, 91.2 ppm K, 82.3 ppm Ca, 58.2 ppm Mg, 23.9 ppm Na, 125.6 ppm S, 1.33 ppm Fe, 0.39 ppm Mn, 0.35 ppm Zn, 0.05 pp, Cu, 0.04 ppm B, 0 ppm Mo, 0.73 ppm Al, and 12.1 ppm Si. The pH of the medium was 5.36 and the electric conductivity was 1.38 mS/cm. The foliar tissue analysis was performed at 6 WAT and the concentration of N, P, K, Mg, Ca, S, B, Zn, Mn, Fe, and Cu was determined by a commercial laboratory. Plant toxicity was determined at 4 WAT by using a 0-10 visual scale, where 0=no visible damage and 10=total plant death. Marketable fruit weight was collected 2 times in bell pepper and 4 times in tomato following USDA standards.
(§7) Data were analyzed using a general linear model, and means were separated using orthogonal contrasts at the 5% significance level.

[4] = system: Aristotle bell pepper; test: Marketable yield per plant, greenhouse Fall 2007, bell pepper
Method: as §2, §3, §4, §5, §6, §7

[5] = system: Tygress tomato plants; test: Foliar nutrient concentration at 7 WAT, greenhouse tomato spring 2009 (Examples 13-15); conditions: 7 WAT
Method: (§8) The following experiments were performed in a green house during the spring of 2009 at GCREC, Balm, University of Florida. Crop set-up, procedures and variables were as follows.
(§9) Transplants of ‘Tygress’ tomato plants were planted in 2-gallon pots filled with commercial planting medium with nutrient concentration of Fe, Zn, Mn, Cu being negligible and insufficient for crop growth. Irrigation and non-micronutrient fertilizer were provided daily through microsprinklers at recommended rates for tomato production in Florida. No pesticides were used. Treatments were as described in Tables 42, 43, and 44 below. BIOX-Cu was compared to Cu-sulfate, BIOX-EDC, and BIOX-O; and BIOX-Fe was compared to Fe-sulfate and BIOX-EDF. BIOX-MEZ is Ca-HMTBA.
(§10) Treatments were applied at 6 WAT (weeks after transplanting) using a water volume of 200 mL/plant. Deionized water was used for foliar applications. A non-ionic surfactant was added. Other nutrients were applied as appropriate under non-limiting conditions.
Foliar tissue nutrient analysis was performed at 3 WAT (i.e., 3 weeks before treatment) and 7 WAT (i.e., 1 weeks after treatment) on the non-applied newest leaves. The concentrations of N, P, K, Mg, Ca, B, Zn, Mn, Fe, and Cu in the foliar tissue were determined by a commercial laboratory. There were no significant differences between the foliar nutrient concentrations of any of the treatment groups prior to treatment.
(§11) Experimental design was a randomized complete block design with 6 replications. Data were analyzed using a general linear model, and means were separated using an LSD test at the 5% significance level.

[6] = system: Tygress tomato plants; test: Yields of tomato fruits, greenhouse spring 2009 (Examples 13-15)
Method: as §8, §9, §10
Marketable fruit were collected three times during the growing season, starting at 10 WAT (4 weeks after the initial treatment). Tomato fruit was graded as marketable and non-marketable. Marketable fruit was sized as extra-large, large, and medium. Non-marketable fruit were harvested and number and weight recorded but not sized.
as §11

[7] = system: Tygress tomato plants; conditions: for Toxicity (0-10): 0=no injury, 10=plant death
Method: as §8, §9, §10
Toxicity of the treatments was assessed by rating foliar tissue using a visual scale, where 0=no injury and 10=plant death.
as §11

[8] = foliar application at 3 and 7 WAT, rates not separated

## CSCCC(O)C(=O)[O-].CSCCC(O)C(=O)[O-].[Ca+2] (stereo not shown) [BIOX-MEZ, Ca-HMTBA]
[1]; High rate
  Pepper toxicity: 0
[1]; Low rate
  Pepper toxicity: 0
[1]; Medium rate
  Pepper toxicity: 0
[2]; High rate
  Tomato toxicity: 0
[2]; Low rate
  Tomato toxicity: 0
[2]; Medium rate
  Tomato toxicity: 0
[3]; [8]
  Marketable yield per plant, Tomato: 3.0* lb/plant
[3]; foliar applications, P<0.05
  Tomato yield compared with control (in words): significantly increased
[4]; [8]
  Marketable yield per plant, Pepper: 3.2* lb/plant
[4]; foliar applications, P<0.05
  Bell pepper yield compared with control (in words): significantly increased
[5]; 0.6 lb/acre
  Nutrient concentration in tomato leaves: Ca: 1.3 b %
  Nutrient concentration in tomato leaves: K: 3.8%
  Nutrient concentration in tomato leaves: Mg: 0.6%
  Nutrient concentration in tomato leaves: N: 3.8%
  Nutrient concentration in tomato leaves: P: 0.6%
[5]; 1.2 lb/acre
  Nutrient concentration in tomato leaves: Ca: 1.3 b %
  Nutrient concentration in tomato leaves: K: 4.4%
  Nutrient concentration in tomato leaves: Mg: 0.6%
  Nutrient concentration in tomato leaves: N: 4.2%
  Nutrient concentration in tomato leaves: P: 0.7%
[5]; 2.5 lb/acre
  Nutrient concentration in tomato leaves: Ca: 1.3 b %
  Nutrient concentration in tomato leaves: K: 3.9%
  Nutrient concentration in tomato leaves: Mg: 0.5%
  Nutrient concentration in tomato leaves: N: 4.4%
  Nutrient concentration in tomato leaves: P: 0.7%
[5]; 4.8 lb/acre
  Nutrient concentration in tomato leaves: Ca: 1.2 b %
  Nutrient concentration in tomato leaves: K: 3.9%
  Nutrient concentration in tomato leaves: Mg: 0.6%
  Nutrient concentration in tomato leaves: N: 3.8%
  Nutrient concentration in tomato leaves: P: 0.6%
[5]; 7.2 lb/acre
  Nutrient concentration in tomato leaves: Ca: 1.7 a %
  Nutrient concentration in tomato leaves: K: 4.6%
  Nutrient concentration in tomato leaves: Mg: 0.6%
  Nutrient concentration in tomato leaves: N: 4.7%
  Nutrient concentration in tomato leaves: P: 0.7%
[5]; BIOX-MEZ at a rate of 7.2 lb/acre
  Foliar Ca concentration, statement: significantly increased
[5]; BIOX-MEZ treatment
  Foliar levels of N, P, K, and Mg, statement: not affected
[6]; 0.6 lb/acre
  Marketable yield: 1100 g/plant
[6]; 1.2 lb/acre
  Marketable yield: 875 g/plant
[6]; 2.5 lb/acre
  Marketable yield: 925 g/plant
[6]; 4.8 lb/acre
  Marketable yield: 1000 g/plant
[6]; 7.2 lb/acre
  Marketable yield: 900 g/plant
[6]; BIOX-MEZ treatment
  Marketable or non-marketable yields, statement: no change in marketable or non-marketable yields
[7]; 0.6 lb/acre
  Toxicity (0-10): 0
[7]; 1.2 lb/acre
  Toxicity (0-10): 0
[7]; 2.5 lb/acre
  Toxicity (0-10): 1
[7]; 4.8 lb/acre
  Toxicity (0-10): 1
[7]; 7.2 lb/acre
  Toxicity (0-10): 1
[7]; BIOX-MEZ application
  Toxic effects on the tomato plants, statement: no major toxic effects
